According to patent publication US11046699B2, “Pyrazolo-pyrimidin-amino-cycloalkyl compounds and their therapeutic uses” (RAPT THERAPEUTICS, INC., priority 2018, dated 2021):
Where two headings read alike, the source gives them in different places.

Target: GCN2 (Homo sapiens, UniProt Q9P2K8)
Assay: GCN2 enzymatic endpoint assay: phosphorylation of GFP-eIF2α measured by TR-FRET (Lanthascreen)
Format: biochemical
Method in brief: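 Endpoint kinase reaction with 2 μM ATP and 80 nM GFP-labelled eIF2α substrate, run at room temperature for 90 min, then stopped with EDTA. Phospho-substrate detected by terbium-antibody TR-FRET, activity taken as the 520/495 nm emission ratio.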

[1] = tested as described in Example 77, compound and/or hydrochloride, dihydrochloride or trifluoroacetic acid salt, read-out: IC 50 Activity

Chain of GCN2 (Q9P2K8 whole entry): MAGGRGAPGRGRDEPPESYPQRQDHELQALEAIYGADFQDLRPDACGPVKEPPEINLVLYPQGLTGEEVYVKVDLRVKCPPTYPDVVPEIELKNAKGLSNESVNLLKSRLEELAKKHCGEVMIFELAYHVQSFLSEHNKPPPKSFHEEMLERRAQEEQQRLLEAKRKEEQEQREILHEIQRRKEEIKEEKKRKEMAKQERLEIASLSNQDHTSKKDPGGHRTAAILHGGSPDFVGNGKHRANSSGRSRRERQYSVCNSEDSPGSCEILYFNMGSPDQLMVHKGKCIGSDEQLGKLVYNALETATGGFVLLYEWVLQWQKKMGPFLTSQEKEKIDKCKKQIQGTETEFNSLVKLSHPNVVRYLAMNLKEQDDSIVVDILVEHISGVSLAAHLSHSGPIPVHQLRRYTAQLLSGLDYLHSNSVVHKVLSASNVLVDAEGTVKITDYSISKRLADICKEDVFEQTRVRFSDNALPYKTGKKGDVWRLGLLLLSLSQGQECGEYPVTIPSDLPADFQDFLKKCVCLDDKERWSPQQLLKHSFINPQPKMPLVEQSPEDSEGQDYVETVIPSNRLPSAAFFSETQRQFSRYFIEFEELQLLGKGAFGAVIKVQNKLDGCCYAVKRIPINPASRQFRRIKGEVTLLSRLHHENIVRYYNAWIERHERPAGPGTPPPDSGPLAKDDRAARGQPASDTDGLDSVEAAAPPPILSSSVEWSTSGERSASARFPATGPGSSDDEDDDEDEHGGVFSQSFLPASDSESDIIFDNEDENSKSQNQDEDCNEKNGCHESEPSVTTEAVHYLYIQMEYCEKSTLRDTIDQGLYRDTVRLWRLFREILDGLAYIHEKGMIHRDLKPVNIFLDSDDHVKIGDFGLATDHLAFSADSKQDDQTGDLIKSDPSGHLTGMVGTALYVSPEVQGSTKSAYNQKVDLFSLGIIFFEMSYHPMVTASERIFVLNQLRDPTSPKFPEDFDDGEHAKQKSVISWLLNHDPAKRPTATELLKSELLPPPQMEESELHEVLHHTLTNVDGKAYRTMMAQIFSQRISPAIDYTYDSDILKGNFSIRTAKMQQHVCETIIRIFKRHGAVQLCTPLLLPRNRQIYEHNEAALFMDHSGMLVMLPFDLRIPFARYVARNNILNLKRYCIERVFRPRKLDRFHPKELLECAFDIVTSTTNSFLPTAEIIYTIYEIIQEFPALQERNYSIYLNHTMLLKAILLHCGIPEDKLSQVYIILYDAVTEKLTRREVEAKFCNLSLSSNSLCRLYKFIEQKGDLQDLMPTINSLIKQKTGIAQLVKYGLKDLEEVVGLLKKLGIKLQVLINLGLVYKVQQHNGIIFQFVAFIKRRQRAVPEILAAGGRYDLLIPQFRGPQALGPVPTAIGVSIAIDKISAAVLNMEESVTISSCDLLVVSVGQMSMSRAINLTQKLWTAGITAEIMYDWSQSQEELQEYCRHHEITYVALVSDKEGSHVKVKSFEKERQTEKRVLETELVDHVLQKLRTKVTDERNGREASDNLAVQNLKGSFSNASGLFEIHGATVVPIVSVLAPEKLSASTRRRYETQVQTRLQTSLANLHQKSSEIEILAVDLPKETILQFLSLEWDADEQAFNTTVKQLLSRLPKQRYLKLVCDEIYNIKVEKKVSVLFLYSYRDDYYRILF

SMILES	IC50 [1]	IC50 (GCN2 biochemical IC50, 4 nM GCN2, 2 μM ATP, 80 nM GFP-eIF2α, 90 min RT, read-out: GCN2 activity)
CN(C)C(=O)N1CC[C@@H](Nc2ncc3c(Br)nn(-c4ccc5ncccc5c4)c3n2)C1 [(R)-3-((3-bromo-1-(quinolin-6-yl)-1H-pyrazolo [3,4-d]pyrimidin-6-yl)amino)-N,N-dimethyl-pyrrolidine-1-carboxamide]	500 to 1000 nM	
Cc1nnc(-c2ccc(-n3nc(Br)c4cnc(N[C@@H]5CCC6(CC(=O)N(C)C6=O)C5)nc43)cc2)s1 (stereo partly drawn)	< 25 nM	
O=C(NCCOC(F)(F)F)[C@@H]1CC[C@@H](Nc2ncc3c(Br)nn(-c4ccc5ncccc5c4)c3n2)C1 [(1R,3R)-3-((3-bromo-1-(quinolin-6-yl)-1H-pyrazolo[3,4-d]pyrimidin-6-yl)amino)-N-(2-(trifluoromethoxy)ethyl)cyclopentane-1-carboxamide]	200 to 500 nM	
Cc1nnc(-c2ccc(-n3nc(Br)c4cnc(N[C@@H]5CC[C@@](C)(C#N)C5)nc43)cc2)s1	25 to 200 nM	
C[C@@H]1CN(C(=O)[C@@H]2CC[C@@H](Nc3ncc4c(Br)nn(-c5ccc6ncccc6c5)c4n3)C2)C[C@H](C)O1 [((1R,3R)-3-((3-bromo-1-(quinolin-6-yl)-1H-pyrazolo[3,4-d]pyrimidin-6-yl)amino)cyclopentyl)((2S,6R)-2,6-dimethylmorpholino) methanone]	200 to 500 nM	
COCCNC(=O)C12CCC(Nc3ncc4c(Br)nn(-c5ccc6ncccc6c5)c4n3)(CC1)C2 [4-((3-bromo-1-(quinolin-6-yl)-1H-pyrazolo [3,4-d]pyrimidin-6-yl)amino)-N-(2-methoxyethyl)bicyclo[2.2.1]heptane-1-carboxamide]	200 to 500 nM	
Cc1nnc(-c2ccc(-n3nc(Br)c4cnc(N[C@@H]5CC[C@@]6(CCNC6=O)C5)nc43)cc2CCC#N)s1	25 to 200 nM	
CNC(=O)CC1CC(Nc2ncc3c(Br)nn(-c4ccc(-c5nnc(C)s5)cc4)c3n2)C1 (stereo not drawn)	25 to 200 nM	
CNC(=O)[C@]1(C)CC[C@@H](Nc2ncc3c(Br)nn(-c4cc(C#N)c5ncccc5c4)c3n2)C1 (single isomer, unassigned) [Example 23]		< 25 nM
CNC(=O)[C@]1(C)CC[C@@H](Nc2ncc3c(Br)nn(-c4cc(CO)cc(C(F)(F)F)c4)c3n2)C1 [(1R,3R)-3-[[3-bromo-1-[3-(hydroxy-methyl)-5-(trifluoromethyl)phenyl]pyrazolo[3,4-d]pyrimidin-6-yl]amino]-N,1-dimethyl-cyclopentanecarboxamide]	25 to 200 nM	
Cc1nc2c(F)cc(-n3nc(Br)c4cnc(N[C@@H]5CC[C@@H](C(=O)N6CCN(C)C(=O)C6)C5)nc43)cc2cc1F [4-((1R,3R)-3-((3-bromo-1-(3,8-difluoro-2-methylquinolin-6-yl)-1H-pyrazolo[3,4-d]pyrimidin-6-yl)amino)cyclopentane-1-carbonyl)-1-methylpiperazin-2-one]	25 to 200 nM	
CNC(=O)[C@]1(C)CC[C@@H](Nc2ncc3c(Br)nn(-c4cc(C#N)cc(CCC5CNC5)c4)c3n2)C1 [(1R,3R)-3-[[1-[3-[2-(azetidin-3-yl)ethyl]-5-cyano-phenyl]-3-bromo-pyrazolo[3,4-d]pyrimidin-6-yl]amino]-N,1-dimethyl-cyclopentanecarboxamide]	25 to 200 nM	
COCCNC(=O)[C@@H]1CC[C@@H](Nc2ncc3c(Br)nn(-c4ccc5ccncc5c4)c3n2)C1 [(1R,3R)-3-((3-bromo-1-(isoquinolin-7-yl)-1H-pyrazolo[3,4-d]pyrimidin-6-yl)amino)-N-(2-methoxyethyl)cyclopentane-1-carboxamide]	25 to 200 nM	
CNC(=O)[C@]1(C)CC[C@@H](Nc2ncc3c(Br)nn(-c4cc(C#N)cc(OCC(C)O)c4)c3n2)C1 (stereo partly drawn) [(1R,3R)-3-[[3-bromo-1-[3-cyano-5-(2-hydroxypropoxy)phenyl]pyrazolo [3,4-d]pyrimidin-6-yl]amino]-N,1-dimethyl-cyclopentanecarboxamide]	25 to 200 nM	
CNC(=O)[C@]1(C)CC[C@@H](Nc2ncc3c(Br)nn(-c4ccc5c(c4)CNC(=O)C5)c3n2)C1 [(1R,3R)-3-[[3-bromo-1-(3-oxo-2,4-dihydro-1H-isoquinolin-7-yl)pyrazolo [3,4-d]pyrimidin-6-yl]amino]-N,1-dimethyl-cyclopentanecarboxamide]	25 to 200 nM	

Further lines, results first:

IC50 [1]	IC50 (GCN2 biochemical IC50, 4 nM GCN2, 2 μM ATP, 80 nM GFP-eIF2α, 90 min RT, read-out: GCN2 activity)	SMILES
25 to 200 nM		CNC(=O)[C@]1(C)CC[C@@H](Nc2ncc3c(Br)nn(-c4ccc(C#N)c(CCN)c4)c3n2)C1 [(1R,3R)-3-[[1-[3-(2-aminoethyl)-4-cyano-phenyl]-3-bromo-pyrazolo[3,4-d]pyrimidin-6-yl]amino]-N,1-dimethyl-cyclopentanecarboxamide]
25 to 200 nM		CNC(=O)[C@]1(C)CC[C@@H](Nc2ncc3c(Br)nn(-c4cc(CN5C(=O)CNC5=O)c5ncccc5c4)c3n2)C1 [(1R,3R)-3-[[3-bromo-1-[8-[(2,5-dioxo-imidazolidin-1-yl)methyl]-6-quinolyl]pyrazolo[3,4-d]pyrimidin-6-yl]amino]-N,1-dimethyl-cyclopentanecarboxamide]
25 to 200 nM		CNC(=O)[C@]1(C)CCC(Nc2ncc3c(Br)nn(-c4ccc5c(c4)CCC(=O)N5)c3n2)C1 (stereo partly drawn) [(1R)-3-[[3-bromo-1-(2-oxo-3,4-dihydro-1H-quinolin-6-yl)pyrazolo[3,4-d]pyrimidin-6-yl]amino]-N,1-dimethyl-cyclopentane-carboxamide]
25 to 200 nM		CNC(=O)[C@]1(C)CC[C@@H](Nc2ncc3c(Br)nn(-c4ccc(-c5nnc(C(C)N)s5)cc4)c3n2)C1 (stereo partly drawn) [(1R,3R)-3-[[1-[4-[5-(1-aminoethyl)-1,3,4-thiadiazol-2-yl]phenyl]-3-bromo-pyrazolo [3,4-d]pyrimidin-6-yl]amino]-N,1-dimethyl-cyclopentanecarboxamide]
25 to 200 nM		CNC(=O)[C@@H]1CC[C@@H](Nc2ncc3c(Br)nn(-c4ccc5nc(OC)ccc5c4)c3n2)C1 [(1R,3R)-3-[[3-bromo-1-(2-methoxy-6-quinolyl)pyrazolo[3,4-d]pyrimidin-6-yl]amino]-N-methyl-cyclopentanecarboxamide]
25 to 200 nM		CNC(=O)[C@]1(C)CC[C@@H](Nc2ncc3c(Br)nn(-c4cc(Cl)cc(CN=S(C)(=O)O)c4)c3n2)C1
25 to 200 nM		CNC(=O)[C@]1([C@H](C)C#N)CC[C@@H](Nc2ncc3c(Br)nn(-c4ccc(-c5nnc(C)s5)cc4)c3n2)C1 [(1R,3R)-3-[[3-bromo-1-[4-(5-methyl-1,3,4-thiadiazol-2-yl)phenyl]pyrazolo [3,4-d]pyrimidin-6-yl]amino]-1-[(1S)-1-cyanoethyl]-N-methyl-cyclopentane-carboxamide]
25 to 200 nM		CNC(=O)[C@]1(C)CC[C@@H](Nc2ncc3c(Br)nn(-c4ccc5c(c4)CCNC5=O)c3n2)C1 [(1R,3R)-3-[[3-bromo-1-(1-oxo-3,4-dihydro-2H-isoquinolin-6-yl)pyrazolo[3,4-d]pyrimidin-6-yl]amino]-N,1-dimethyl-cyclopentanecarboxamide]
25 to 200 nM		O=C([C@@H]1CC[C@@H](Nc2ncc3c(Br)nn(-c4ccc5ncccc5c4)c3n2)C1)N1CCOCC1 [((1R,3R)-3-((3-bromo-1-(quinolin-6-yl)-1H-pyrazolo[3,4-d]pyrimidin-6-yl)amino)cyclo-pentyl)(morpholino)methanone]
25 to 200 nM		CNC(=O)[C@]1(C)CC[C@@H](Nc2ncc3c(Br)nn(-c4cc(CCN)c5ncc(C#N)cc5c4)c3n2)C1 [(1R,3R)-3-[[1-[8-(2-aminoethyl)-3-cyano-6-quinolyl]-3-bromo-pyrazolo[3,4-d]pyrimidin-6-yl]amino]-N,1-dimethyl-cyclopentane-carboxamide]
25 to 200 nM		CNC(=O)[C@]1(C)CC[C@@H](Nc2ncc3c(Br)nn(-c4ccc(-c5cnn(C)c5)cc4)c3n2)C1 [(1R,3R)-3-[[3-bromo-1-[4-(1-methyl-pyrazol-4-yl)phenyl]pyrazolo[3,4-d]pyrimidin-6-yl]amino]-N,1-dimethyl-cyclopentanecarboxamide]
25 to 200 nM		CNC(=O)[C@@H]1CC[C@@H](Nc2ncc3c(Br)nn(-c4cc(F)c5nc(C)ccc5c4)c3n2)C1 [(1R,3R)-3-((3-bromo-1-(8-fluoro-2-methyl-quinolin-6-yl)-1H-pyrazolo[3,4-d]pyrimidin-6-yl)amino)-N-methylcyclopentane-1-carboxamide]
< 25 nM		CNC(=O)[C@]1(C)CC[C@@H](Nc2ncc3c(Br)nn(-c4ccc5nccc(OC)c5c4)c3n2)C1 [(1R,3R)-3-[[3-bromo-1-(4-methoxy-6-quinolyl)pyrazolo[3,4-d]pyrimidin-6-yl]amino]-N,1-dimethyl-cyclopentanecarboxamide]
25 to 200 nM		O[C@@H]1CC[C@@H](Nc2ncc3c(Br)nn(-c4cc(F)c5ncccc5c4)c3n2)C1 [(1R,3R)-3-[[3-bromo-1-(8-fluoro-6-quinolyl)pyrazolo[3,4-d]pyrimidin-6-yl]amino]cyclopentanol]
25 to 200 nM		CNC(=O)[C@]1(C)CC[C@@H](Nc2ncc3c(Br)nn(-c4ccc(-c5nnc(COC)o5)cc4)c3n2)C1 [(1R,3R)-3-[[3-bromo-1-[4-[5-(methoxy-methyl)-1,3,4-oxadiazol-2-yl]phenyl]pyrazolo [3,4-d]pyrimidin-6-yl]amino]-N,1-dimethyl-cyclopentanecarboxamide]
25 to 200 nM		CNC(=O)[C@]1(C)CC[C@@H](Nc2ncc3c(Br)nn(-c4ccc5c(c4)CN(S(=O)(=O)C4COC4)C5)c3n2)C1 [(1R,3R)-3-[[3-bromo-1-[2-(oxetan-3-ylsulfonyl)isoindolin-5-yl]pyrazolo[3,4-d]pyrimidin-6-yl]amino]-N,1-dimethyl-cyclopentanecarboxamide]
25 to 200 nM		CNC(=O)[C@]1(C)CC[C@@H](Nc2ncc3c(Br)nn(-c4ccc5c(c4)CN(C(=O)CO)CC5)c3n2)C1 [(1R,3R)-3-[[3-bromo-1-[2-(2-hydroxyacetyl)-3,4-dihydro-1H-isoquinolin-7-yl]pyrazolo [3,4-d]pyrimidin-6-yl]amino]-N,1-dimethyl-cyclopentanecarboxamide]
25 to 200 nM		CNC(=O)[C@]1(C)CCC(Nc2ncc3c(Br)nn(-c4cc(F)cc(C5COC5)c4)c3n2)C1 (stereo partly drawn) [(1R)-3-[[3-bromo-1-[3-fluoro-5-(oxetan-3-yl)phenyl]pyrazolo[3,4-d]pyrimidin-6-yl]amino]-N,1-dimethyl-cyclopentane-carboxamide]
